Source: patent US10188743B2, “Cytisine-linked isoflavonoid antineoplastic agents for the treatment of cancer” (UNIVERSITY OF KENTUCKY RESEARCH FOUNDATION, priority 2016, dated 2019)

Assays:
LS174T cancer cells [1] = assay: Acetyl-CoA analysis of treated cells; assay type: cell-based
Description: Cell Metabolism. Acetyl-CoA analysis: Cells grown in 6 cm plates were treated with DMSO or inhibitors, and harvested in lysis buffer (20 mM Tris pH 7.5, 150 mM NaCl, 1 mM EDTA, 1 mM EGTA, 1% Triton X-100, 2.5 mM sodium pyrophosphate, 1 mM Na3VO4, 1 ug/mL Leupeptin, 1 mM PMSF and 1:100 Protease inhibitor cocktail). Supernatants were analyzed using PicoProbe Acetyl CoA kit (Abcam, ab87546).

LS174T cancer cells [2] = assay: ATP analysis of treated cells; assay type: cell-based
Description: ATP analysis: Cells growing in 12-well plates were treated with DMSO or inhibitors, and lysed by adding 1 mL boiling D.D. water. Supernatants were analyzed by luminescence using ATP Determination Kit (Invitrogen, A22066).

[3] = test system: acetyl CoA carboxylase (ACC); assay: ACC phosphorylation / activation downstream of AMPK (Western blotting); assay type: cell-based; details: PC-3 and LS174T cells
Description: Biochemistry. Western blotting: Cells were lysed in the appropriate volume of lysis buffer (50 mM HEPES, 100 mM NaCl, 2 mM EDTA, 1% glycerol, 50 mM NaF, 1 mM Na3VO4, 1% Triton X-100, with protease inhibitors). The following antibodies were used: HSD17B4 (GeneTex, GTX103864), AMPK (Cell Signaling, 2532), pAMPK (Cell Signaling, 2535), ACC (Cell Signaling, 3676), pACC (Cell Signaling, 11818), p^70 (Cell Signaling, 2708), p-p^70 (Cell Signaling, 9914), S6 (Cell Signaling, 2217), pS6 (Cell Signaling, 4858), MCCA (GeneTex, GTX110062), tubulin (Hybridoma Bank, E7), Actin (Sigma, A1978), His-tag (BD Pharmingen, 552564).

[4] = test system: LS174T colon cancer cells; assay: Fatty acid analysis of treated cells; assay type: cell-based
Description: Fatty acid analysis: Free and total fatty acids (after saponification) were prepared as reported previously (Spencer et al. Diabetes 62(5):1709-1717) converted to N-(4-aminomethylphenyl)pyridinium derivatives (Bollinger et al. J Lipid Res 54(12):3523-3530) and quantitated HPLC electrospray ionization tandem mass spectrometry with quantitation accomplished using exogenously added heptadecanoic acid as a recovery standard and reference to offline calibrations generated using authentic fatty acid standards.

[5] = test system: PC-3 prostate cancer cells; assay: Cancer cell proliferation (Vi-Cell viability and number); assay type: cell-based; details: 10 μM of compound
Description: Cell Culture. LS74T colon cancer cells were cultured in MEM/EBSS (Hyclone SH30024) and PC-3 prostate cancer cells were cultured in DMEM/F-12 HAM Mixture (Sigma D8437) containing 10% Fetal Bovine Serum (Atlanta Biological S11150). Cells (3.5×10^4 cells per well) were split into 12-well plates. After 24 h, 10 μM of each compound were added to each well. DMSO was used as a control. Each experiment was done in triplicate. Cell viability and number were analyzed using the Vi-Cell XR Cell Viability Analyzer (Beckman Coulter). To knock-down HSD17B4 levels, PC-3 and LS174 cell lines were infected with lenti-virus carrying pLKO.1-control shRNA and pLKO.1-HSD17B4b shRNA, respectively. Control shRNA and HSD17B4b shRNA cloned in pLKO.1 vectors with puromycin-resistance selection marker were purchased from Sigma. Lentiviral stocks were prepared as previously described (Yu, 2012).

[6] = molecular target: T1, α,β-dehydrogenase activity of HSD17B4 (Homo sapiens, UniProt P51659); assay: HSD17B4 dehydrogenase assay (NADH readout); assay type: biochemical
T1 construct: His-tag; made in house; host or cells: E. coli BL21 (pET28)
T1 sequence (P51659 1-736): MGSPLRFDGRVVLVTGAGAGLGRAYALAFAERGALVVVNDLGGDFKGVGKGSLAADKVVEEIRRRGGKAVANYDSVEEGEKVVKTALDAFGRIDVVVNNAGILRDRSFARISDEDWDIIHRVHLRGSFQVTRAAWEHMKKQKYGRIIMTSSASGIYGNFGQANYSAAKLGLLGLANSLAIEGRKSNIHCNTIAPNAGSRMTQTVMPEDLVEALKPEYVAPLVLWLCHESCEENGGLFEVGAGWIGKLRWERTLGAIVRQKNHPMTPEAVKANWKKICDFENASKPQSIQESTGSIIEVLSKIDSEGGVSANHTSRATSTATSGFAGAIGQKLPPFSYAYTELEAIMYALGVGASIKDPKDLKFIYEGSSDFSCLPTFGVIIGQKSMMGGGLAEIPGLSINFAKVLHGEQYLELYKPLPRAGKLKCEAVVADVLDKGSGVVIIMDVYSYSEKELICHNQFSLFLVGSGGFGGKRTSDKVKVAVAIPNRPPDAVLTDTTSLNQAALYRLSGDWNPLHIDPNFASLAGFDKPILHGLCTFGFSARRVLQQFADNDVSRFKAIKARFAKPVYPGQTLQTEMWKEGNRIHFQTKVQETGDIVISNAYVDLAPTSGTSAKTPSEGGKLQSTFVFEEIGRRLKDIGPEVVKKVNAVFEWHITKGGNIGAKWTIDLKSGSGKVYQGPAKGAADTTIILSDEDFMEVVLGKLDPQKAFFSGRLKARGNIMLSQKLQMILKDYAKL
Description: We acquired further evidence along these lines through studies using the N-terminal α,β-dehydrogenase and C-terminal hydratase fragments of HSD17B4 as well as the full-length protein. We evaluated the α,β-dehydrogenase activity using DL-3-hydroxylbutyryl-CoA as a substrate and the conversion of NAD^+ to NADH as a readout. We concomitantly measured the hydratase activity using crotonoyl-CoA as a substrate and the diminished ultraviolet absorption of the α,β-unsaturated thioester chromophore as readout. The full-length protein, as expected, had both enzyme activities (FIGS. 7A and 7B). The C-terminal-truncated fragments N318 and N634 but not the N-terminal-truncation fragment C919 had α,β-dehydrogenase activity (FIG. 7A). The C-terminal fragment N634 and the N-terminal fragment C919, but not the C-terminal fragment N318, had hydratase activity (FIG. 7B), as summarized in FIG. 3A.
The enzymatic activities of HSD17B4 were analyzed using the method reported by Novikov et al. (J. Biol. Chem., 1994, 269, 27125). […] The reaction was quantified by measuring the fluorescent product NADH (excitation: 340 nm; emission 460 nm). […] The reaction was quantified by measuring the remaining substrate using absorbance at 280 nm.

O=c1c(-c2ccc(Cl)cc2)coc2cc(OCCN3C[C@@H]4C[C@@H](C3)c3cccc(=O)n3C4)ccc12 [Compound 10c, (1 S,5S)-3-(2-((3-(4-chlorophenyl)-4-oxo-4H-chromen-7-yl)oxy)ethyl)-3,4,5,6-tetrahydro-1H-1,5-methanopyrido[1,2-a][1,5]diazocin-8(2H)-one]
level of acetyl CoA (LS174T cancer cells [1]): decreased the levels
level of ATP (LS174T cancer cells [2]): decreased the levels
ACC phosphorylation [3]: induced appreciable ACC phosphorylation
fatty acid levels [4]: reduced the levels of a number of fatty acids
proliferation of PC-3 cells [5]: significantly inhibited the proliferation
effect on α,β-dehydrogenase activity [6]: no effect
